The subject of this assay is P388 leukemia ip, CD2F1 mice, survival T/C. In words: NCI In Vivo Anticancer Drug Screen. Data for tumor model P388 Leukemia (intraperitoneal) in CD2F1 (CDF1) mice. To be noted: endpoint: median survival time, higher = longer survival. An outline of the steps: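 Mice carrying the transplanted tumor received test compound or vehicle. Survival was recorded in each group, and the value is the treated-group measurement divided by that of the vehicle-treated control group.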

The mark [1] stands for this setting: dose: 50.0 mg/kg/injection, schedule: Q01DX009 (ip), vehicle: Klucel (hydroxypropylcellulose) (HPC).
Where [2] appears, read: dose: 100.0 mg/kg/injection, schedule: Q01DX009 (ip), vehicle: Klucel (hydroxypropylcellulose) (HPC).
Where [3] appears, read: dose: 12.5 mg/kg/injection, schedule: Q01DX009 (ip), vehicle: distilled water + Tween-80.
Where [4] appears, read: dose: 25.0 mg/kg/injection, schedule: Q01DX009 (ip), vehicle: distilled water + Tween-80.
Where [5] appears, read: dose: 12.5 mg/kg/injection, schedule: Q01DX009 (ip), vehicle: Klucel (hydroxypropylcellulose) (HPC).
[6] abbreviates: dose: 25.0 mg/kg/injection, schedule: Q01DX009 (ip), vehicle: Klucel (hydroxypropylcellulose) (HPC).
The mark [7] stands for this setting: dose: 200.0 mg/kg/injection, schedule: Q01DX009 (ip), vehicle: Klucel (hydroxypropylcellulose) (HPC).
The mark [8] stands for this setting: dose: 50.0 mg/kg/injection, schedule: Q01DX009 (ip), vehicle: saline with Tween-80.
Setting [9] is: dose: 100.0 mg/kg/injection, schedule: Q01DX009 (ip), vehicle: saline with Tween-80.

The results in this text go back to PubChem BioAssay AID330 (DTP/NCI, 2004).

“And” between values parts separate entries of the source, which are not always exact repeats. Equal entries are not always repeated. Toxic doses and inconclusive results are not listed. Peptide text beside a SMILES is read from it. * marks the point of attachment. Bz = O=C(c1ccccc1)*; Bn = c1ccc(C*)cc1; βAla = NCCC(=O)O

For `C=C(C)[C@@H]1CCc2c(O)c(O)c(=O)cc(C)c2C1`, the T/C was 108 % of control (dose: 1.75 mg/kg/injection, schedule: Q01DX009 (ip), vehicle: saline); 112 % of control and 113 % of control (dose: 3.5 mg/kg/injection, schedule: Q01DX009 (ip), vehicle: saline); 101 % of control and 121 % of control (dose: 7.0 mg/kg/injection, schedule: Q01DX009 (ip), vehicle: saline); 110 % of control (dose: 14.0 mg/kg/injection, schedule: Q01DX009 (ip), vehicle: saline); 121 % of control (dose: 28.0 mg/kg/injection, schedule: Q01DX009 (ip), vehicle: saline); 119 % of control (dose: 56.0 mg/kg/injection, schedule: Q01DX009 (ip), vehicle: saline).
`CN(C)NC(=S)Sc1ccccc1`: the T/C by setting is: under setting [1], 100 % of control; under setting [2], 99 % of control.
In the case of `CC(C)NC(=O)OCc1c(COC(=O)NC(C)C)c(-c2ccc(F)cc2F)n2c1CCC2`, the T/C (dose: 3.13 mg/kg/injection, schedule: Q01DX009 (ip), vehicle: distilled water + Tween-80) is 168 % of control; the T/C (dose: 6.25 mg/kg/injection, schedule: Q01DX009 (ip), vehicle: distilled water + Tween-80) is 158 % of control and 162 % of control; the T/C under setting [3] is 174 % of control and 180 % of control; the T/C under setting [4] was 99 % of control.
`CN(/N=C/c1ccc(Cl)cc1)P(=O)(N1CC1)N1CC1`: the T/C is, setting by setting: (dose: 6.25 mg/kg/injection, schedule: Q01DX005 (ip), vehicle: saline with Tween-80) 116 % of control; (dose: 12.5 mg/kg/injection, schedule: Q01DX005 (ip), vehicle: saline with Tween-80) 116 % of control; (dose: 50.0 mg/kg/injection, schedule: Q01DX005 (ip), vehicle: saline with Tween-80) 171 % of control.
`O=C(O)C[N-]c1ccccc1.O=C(O)C[N-]c1ccccc1.[Ni+2]`: the T/C was 86 % of control (dose: 6.25 mg/kg/injection, schedule: Q01DX009 (ip), vehicle: saline with Tween-80) and 91 % of control (dose: 12.5 mg/kg/injection, schedule: Q01DX009 (ip), vehicle: saline with Tween-80).
In the case of `COC(=O)C(CSCc1ccccc1)NC(=O)C(CSCc1ccccc1)NC(=O)CCNC(=O)c1ccccc1` (configuration not stated) ({Bz-βAla}-Cys(Bn)-Cys(Bn)-OMe; configuration not given here), the T/C is, setting by setting: under setting [3], 92 % of control; under setting [4], 89 % of control; (dose: 50.0 mg/kg/injection, schedule: Q01DX009 (ip), vehicle: distilled water + Tween-80) 90 % of control; (dose: 100.0 mg/kg/injection, schedule: Q01DX009 (ip), vehicle: distilled water + Tween-80) 94 % of control.
Turning to `CC(=O)Nc1ccc(Sc2ncc([N+](=O)[O-])s2)cc1`, the T/C reads like this: under setting [5], 100 % of control; under setting [6], 116 % of control; under setting [1], 100 % of control and 108 % of control; under setting [2], 102 % of control.
As for `O=C(O)CNO`, the T/C runs as follows: under setting [1], 101 % of control; under setting [2], 105 % of control; under setting [7], 104 % of control; (dose: 400.0 mg/kg/injection, schedule: Q01DX009 (ip), vehicle: Klucel (hydroxypropylcellulose) (HPC)) 110 % of control.
As to `O=C(Nc1ccc(F)cc1)/C(Cl)=C1/Sc2ccccc2NC1=O`, the T/C runs as follows: (dose: 100.0 mg/kg/injection, schedule: Q01DX001 (ip), vehicle: saline with Tween-80) 102 % of control; (dose: 200.0 mg/kg/injection, schedule: Q01DX001 (ip), vehicle: saline with Tween-80) 94 % of control; (dose: 400.0 mg/kg/injection, schedule: Q01DX001 (ip), vehicle: saline with Tween-80) 94 % of control.
With `Cc1cnc2c(N)nn(-c3ccccc3)c2n1`, the T/C (dose: 100.0 mg/kg/injection, schedule: Q04DX003 (ip), vehicle: saline with Tween-80) is 95 % of control and the T/C (dose: 200.0 mg/kg/injection, schedule: Q04DX003 (ip), vehicle: saline with Tween-80) is 105 % of control.
Regarding `FC(F)(F)C1=NNC(c2ccc3ccccc3c2)=NN1`, the T/C under setting [1] was 95 % of control, the T/C under setting [2] was 90 % of control and the T/C under setting [7] was 92 % of control.
For `CN(C)c1ccc(/C=C/C(=O)c2nc3ccccc3[nH]2)cc1`, the T/C (dose: 100.0 mg/kg/injection, schedule: Q04DX003 (ip), vehicle: Klucel (hydroxypropylcellulose) (HPC)) is 100 % of control; the T/C (dose: 200.0 mg/kg/injection, schedule: Q04DX003 (ip), vehicle: Klucel (hydroxypropylcellulose) (HPC)) is 100 % of control; the T/C (dose: 400.0 mg/kg/injection, schedule: Q04DX003 (ip), vehicle: Klucel (hydroxypropylcellulose) (HPC)) is 86 % of control.
Take `CCN1CC2(OC(=O)c3ccccc3NC(C)=O)CCC(OC)C34C1C(CC23)C1(O)CC(OC)C2CC4C1(O)C2OC` (configuration not stated): the T/C (dose: 4.0 mg/kg/injection, schedule: Q01DX009 (ip), vehicle: Klucel (hydroxypropylcellulose) (HPC)) is 92 % of control; the T/C (dose: 8.0 mg/kg/injection, schedule: Q01DX009 (ip), vehicle: Klucel (hydroxypropylcellulose) (HPC)) is 94 % of control; the T/C (dose: 16.0 mg/kg/injection, schedule: Q01DX009 (ip), vehicle: Klucel (hydroxypropylcellulose) (HPC)) is 97 % of control; the T/C (dose: 32.0 mg/kg/injection, schedule: Q01DX009 (ip), vehicle: Klucel (hydroxypropylcellulose) (HPC)) was 91 % of control.
With `CCCCCCCC[As](CCCCCCCC)SCC1OC(OC(C)=O)C(OC(C)=O)C(OC(C)=O)C1OC(C)=O` (configuration not stated), the T/C reads like this: under setting [8], 101 % of control; under setting [9], 96 % of control; (dose: 200.0 mg/kg/injection, schedule: Q01DX009 (ip), vehicle: saline with Tween-80) 99 % of control.
For the molecule `CCCCCOC(=O)c1ccccc1N`, the T/C is, setting by setting: under setting [5], 105 % of control; under setting [6], 104 % of control; under setting [1], 102 % of control and 103 % of control; under setting [2], 91 % of control.
Consider `N#C/C(=C1/Nc2ccccc2NC1=O)c1ccccc1`, for which the T/C is 96 % of control (dose: 50.0 mg/kg/injection, schedule: Q01DX009 (ip), vehicle: distilled water + Tween-80 + alcohol) and 92 % of control (dose: 100.0 mg/kg/injection, schedule: Q01DX009 (ip), vehicle: distilled water + Tween-80 + alcohol).
For `S=C(NCCl)NCc1ccccc1`, the T/C reads like this: (dose: 50.0 mg/kg/injection, schedule: Q01DX005 (ip), vehicle: Klucel (hydroxypropylcellulose) (HPC)) 105 % of control; (dose: 100.0 mg/kg/injection, schedule: Q01DX005 (ip), vehicle: Klucel (hydroxypropylcellulose) (HPC)) 100 % of control; (dose: 200.0 mg/kg/injection, schedule: Q01DX005 (ip), vehicle: Klucel (hydroxypropylcellulose) (HPC)) 105 % of control.
Consider `OCC1CCCCC1(O)c1ccccc1` (configuration not stated), for which the T/C is 90 % of control (dose: 50.0 mg/kg/injection, schedule: Q01DX001 (ip), vehicle: Klucel (hydroxypropylcellulose) (HPC)); 90 % of control (dose: 100.0 mg/kg/injection, schedule: Q01DX001 (ip), vehicle: Klucel (hydroxypropylcellulose) (HPC)); 90 % of control (dose: 200.0 mg/kg/injection, schedule: Q01DX001 (ip), vehicle: Klucel (hydroxypropylcellulose) (HPC)).
On to `CCCCCCCCCCCCCCCCCCCCN1CCOCC1`, for which the T/C by setting is: (dose: 12.5 mg/kg/injection, schedule: Q01DX009 (ip), vehicle: saline) 102 % of control; (dose: 25.0 mg/kg/injection, schedule: Q01DX009 (ip), vehicle: saline) 107 % of control; under setting [8], 92 % of control; (dose: 50.0 mg/kg/injection, schedule: Q01DX009 (ip), vehicle: saline) 101 % of control and 97 % of control; under setting [9], 90 % of control; (dose: 100.0 mg/kg/injection, schedule: Q01DX009 (ip), vehicle: saline) 100 % of control. For the same molecule, the T/C (dose: 200.0 mg/kg/injection, schedule: Q01DX009 (ip), vehicle: saline) is 90 % of control.
With `O=c1[nH]c(=O)n(C2CC(O)C(CO)O2)cc1N1CCOCC1` (configuration not stated), the T/C is 108 % of control (dose: 50.0 mg/kg/injection, schedule: Q01DX005 (ip), vehicle: saline); 101 % of control (dose: 100.0 mg/kg/injection, schedule: Q01DX005 (ip), vehicle: saline); 108 % of control (dose: 200.0 mg/kg/injection, schedule: Q01DX005 (ip), vehicle: saline).
Consider `CC1C(=O)OC2C1CCC1(C)CCC(O)C(C)C21` (configuration not stated), for which the T/C runs as follows: (dose: 100.0 mg/kg/injection, schedule: Q04DX002 (ip), vehicle: saline with Tween-80) 102 % of control; (dose: 200.0 mg/kg/injection, schedule: Q04DX002 (ip), vehicle: saline with Tween-80) 99 % of control; (dose: 400.0 mg/kg/injection, schedule: Q04DX002 (ip), vehicle: saline with Tween-80) 99 % of control.
